Laboratory results: the supplement of paper PMC10307832

Tests used:
Assay in all cases: relative viability (nuclei count vs DMSO), 5 days (fraction); higher = more cells survive
BMX-IN-1 + Phenformin = compound: C=CC(=O)Nc1cc(-n2c(=O)ccc3cnc4ccc(-c5ccc(NS(C)(=O)=O)cc5)cc4c32)ccc1C [BMX-IN-1] + N=C(N)NC(=N)NCCc1ccccc1 [Phenformin] (partner 250 µM)
Method in brief: (§1)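 Relative viability was taken as the ratio of nuclei in treated wells to nuclei in vehicle wells. Lung cancer cell lines in 1536-well plates received compounds by pin tool one day after seeding, either one drug alone or a fixed anchor-drug dose plus five library-drug doses (not always all listed) in √10 steps. Nuclei were counted on 4× images after 5 days of treatment, and values are medians of duplicate plates.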

Ibrutinib + Pemetrexed = compound: C=CC(=O)N1CCC[C@@H](n2nc(-c3ccc(Oc4ccccc4)cc3)c3c(N)ncnc32)C1 [Ibrutinib] + Nc1nc2[nH]cc(CCc3ccc(C(=O)N[C@@H](CCC(=O)O)C(=O)O)cc3)c2c(=O)[nH]1 [Pemetrexed] (partner 0.2 µM)
Method in brief: as §1

PAC-1 + Tozasertib = compound: C=CCc1cccc(/C=N/NC(=O)CN2CCN(Cc3ccccc3)CC2)c1O [PAC-1] + Cc1cc(Nc2cc(N3CCN(C)CC3)nc(Sc3ccc(NC(=O)C4CC4)cc3)n2)n[nH]1 [Tozasertib] (partner 0.1 µM)
Method in brief: as §1

BMX-IN-1 + Linsitinib = compound: C=CC(=O)Nc1cc(-n2c(=O)ccc3cnc4ccc(-c5ccc(NS(C)(=O)=O)cc5)cc4c32)ccc1C [BMX-IN-1] + C[C@]1(O)C[C@@H](c2nc(-c3ccc4ccc(-c5ccccc5)nc4c3)c3c(N)nccn32)C1 [Linsitinib] (partner 1 µM)
Method in brief: as §1

Cell Line	relative viability (BMX-IN-1 + Phenformin; first compound 0.02 µM)	relative viability (BMX-IN-1 + Phenformin; first compound 0.2 µM)	relative viability (BMX-IN-1 + Phenformin; first compound 0.6325 µM)	relative viability (BMX-IN-1 + Phenformin; first compound 2 µM)	relative viability (Ibrutinib + Pemetrexed; first compound 0.005 µM)	relative viability (Ibrutinib + Pemetrexed; first compound 0.01581 µM)	relative viability (Ibrutinib + Pemetrexed; first compound 0.05 µM)	relative viability (Ibrutinib + Pemetrexed; first compound 0.1581 µM)	relative viability (Ibrutinib + Pemetrexed; first compound 0.5 µM)	relative viability (PAC-1 + Tozasertib; first compound 0.02 µM)	relative viability (PAC-1 + Tozasertib; first compound 0.06325 µM)	relative viability (PAC-1 + Tozasertib; first compound 0.2 µM)	relative viability (PAC-1 + Tozasertib; first compound 2 µM)	relative viability (BMX-IN-1 + Linsitinib; first compound 0.02 µM)	relative viability (BMX-IN-1 + Linsitinib; first compound 0.2 µM)	relative viability (BMX-IN-1 + Linsitinib; first compound 0.6325 µM)	relative viability (BMX-IN-1 + Linsitinib; first compound 2 µM)
NCI-H441	0.864	1.02	0.991	1	0.287	0.269	0.293	0.263	0.301	0.754	0.597	0.505	0.606	0.594	0.705	0.499	0.696
NCI-H460	0.917	0.576	0.677	0.609	0.0608	0.0607	0.0632	0.0616	0.1	0.356	0.453	0.394	0.542	1.04	1.07	1.45	0.777
NCI-H520	0.711	0.81	0.709	0.693	0.67	0.769	0.666	0.718	0.724	0.461	0.468	0.407	0.393	1.09	1.2	1.36	1.02
NCI-H596	0.891	0.981	0.732	0.83	0.499	0.487	0.482	0.409	0.543	0.903	0.885	0.857	1.01	1.12	1.21	1.02	0.936
NCI-H647	0.537	0.547	0.599	0.661	0.197	0.183	0.205	0.194	0.421	0.336	0.403	0.256	0.242	1.36	1.8	1.25	1.02
NCI-H650	0.46	0.505	0.452	0.455	1.03	0.881	0.885	1.15	1.1	0.73	0.791	0.749	0.721	0.839	1.09	1.02	0.858
NCI-H661	0.242	0.259	0.282	0.255	0.868	0.927	0.89	0.902	0.8	0.364	0.332	0.348	0.331	0.677	0.54	0.5	0.685
NCI-H838	0.564	0.739	0.744	0.572	0.255	0.236	0.246	0.265	0.292	0.283	0.239	0.262	0.279	1.19	1.26	1.2	1.08
NCI-H1355	0.397	0.477	0.453	0.481	–	0.944	0.987	1.06	0.951	0.536	0.568	0.569	0.564	0.873	0.827	0.867	0.853
NCI-H1395	0.445	0.456	0.444	0.47	0.752	0.934	0.804	0.797	1.07	0.629	0.7	0.749	0.646	0.975	1	1.11	1.08
NCI-H1437	0.281	0.342	0.334	0.326	0.366	0.33	0.361	0.296	0.408	0.395	0.391	0.378	0.378	1.35	1.21	1.14	1.03
NCI-H1651	0.292	0.451	0.394	0.363	0.436	0.661	0.572	0.479	0.558	0.615	0.786	0.631	0.65	1.22	0.885	0.912	0.86
NCI-H1666	0.572	0.581	0.597	0.607	0.716	0.984	0.793	0.859	0.871	0.553	0.605	0.615	0.544	0.872	0.891	0.797	0.595
NCI-H1734	0.341	0.431	0.461	0.415	0.423	0.415	0.461	0.387	0.489	0.199	0.256	0.23	0.267	1.02	0.982	0.981	0.902
NCI-H1755	0.544	0.673	0.711	0.612	0.42	0.481	0.475	0.456	0.516	0.541	0.587	0.506	0.512	1.04	1.09	1.1	1
NCI-H1793	0.272	0.398	0.467	0.433	0.526	0.877	0.664	0.515	0.501	0.316	0.338	0.439	0.238	1.33	0.987	1.24	0.844

Cell Line	relative viability (BMX-IN-1 + Phenformin; first compound 0.02 µM)	relative viability (BMX-IN-1 + Phenformin; first compound 0.2 µM)	relative viability (BMX-IN-1 + Phenformin; first compound 0.6325 µM)	relative viability (BMX-IN-1 + Phenformin; first compound 2 µM)	relative viability (Ibrutinib + Pemetrexed; first compound 0.005 µM)	relative viability (Ibrutinib + Pemetrexed; first compound 0.01581 µM)	relative viability (Ibrutinib + Pemetrexed; first compound 0.05 µM)	relative viability (Ibrutinib + Pemetrexed; first compound 0.1581 µM)	relative viability (Ibrutinib + Pemetrexed; first compound 0.5 µM)	relative viability (PAC-1 + Tozasertib; first compound 0.02 µM)	relative viability (PAC-1 + Tozasertib; first compound 0.06325 µM)	relative viability (PAC-1 + Tozasertib; first compound 0.2 µM)	relative viability (PAC-1 + Tozasertib; first compound 2 µM)	relative viability (BMX-IN-1 + Linsitinib; first compound 0.02 µM)	relative viability (BMX-IN-1 + Linsitinib; first compound 0.2 µM)	relative viability (BMX-IN-1 + Linsitinib; first compound 0.6325 µM)	relative viability (BMX-IN-1 + Linsitinib; first compound 2 µM)
NCI-H1915	0.32	0.387	0.389	0.37	0.532	0.599	0.587	0.513	0.715	0.421	0.436	0.411	0.428	1.14	1.1	1.14	1.1
NCI-H1944	0.2	0.219	0.234	0.205	0.624	0.514	0.643	0.518	0.629	0.231	0.247	0.236	0.246	1.34	1.22	1.33	1.2
NCI-H1975	0.404	0.428	0.453	0.416	0.292	0.28	0.315	0.277	0.309	0.76	0.824	0.748	0.729	1.22	1.09	1.06	0.855
NCI-H1993	0.438	0.525	0.453	0.492	0.444	0.58	0.609	0.567	0.597	0.635	0.541	0.469	0.548	0.68	0.721	–	0.636
NCI-H2009	0.47	0.549	0.531	0.485	1.08	1.06	1.16	1.11	1.22	0.816	0.715	0.698	0.696	1.27	1.27	1.29	1.2
NCI-H2023	0.466	0.522	0.418	0.413	0.208	0.219	0.293	0.248	0.396	0.404	0.355	0.382	0.347	0.798	0.695	0.769	0.726
NCI-H2085	0.664	0.68	0.81	0.707	0.878	0.828	0.759	0.621	0.671	0.787	0.81	0.797	0.796	0.915	0.934	1.04	0.97
NCI-H2087	0.462	0.572	0.508	0.443	0.639	0.626	0.748	–	0.694	0.197	0.252	0.281	0.259	1.14	1.11	1.34	1.1
NCI-H2126	0.517	0.559	0.581	0.526	0.509	0.653	0.717	0.671	0.69	0.919	0.829	0.82	0.821	0.74	0.659	0.747	0.678
NCI-H2228	0.339	0.388	0.458	0.37	0.33	0.345	0.328	0.397	0.445	0.228	0.258	0.263	0.234	0.969	0.907	0.848	0.648
NCI-H2347	0.314	0.368	0.38	0.357	0.454	0.4	0.434	0.462	0.463	0.534	0.572	0.576	0.511	1.1	1.02	1.04	0.958
NCI-H2405	0.389	0.568	0.391	0.429	1.01	0.97	–	–	1.06	0.688	0.737	0.74	0.786	1.01	0.875	0.975	0.921
NCI-H3122	0.377	0.633	0.41	0.38	0.214	0.203	0.219	0.191	0.301	0.421	0.425	0.394	0.344	1.04	1.08	1.01	1.02
PC-3 [JPC-3]	0.459	0.488	0.483	0.491	1.14	0.995	0.72	0.624	0.365	0.883	0.859	0.842	0.857	0.962	0.978	1.03	0.988
PC-14	0.575	0.535	0.809	0.583	0.157	0.138	0.133	0.121	0.201	0.572	0.635	0.63	0.626	1.04	1.05	1.01	0.973
